Measurements published in patent US20100016221A1, “METHOD OF DEGRADING PROTEIN BY CHAPERONE-MEDIATED AUTOPHAGY” (RIKEN, priority 2008, published 2010).
Entries after “also recorded” stand apart in the source; their conditions may differ. Square brackets hold non-standard residues; d marks the D form. Ends that are not written are not given here. Peptide text beside a SMILES is read from it. * marks the point of attachment. Sta = CC(C)C[C@H](N)[C@@H](O)CC(=O)O; Isovaleryl = CC(C)CC(=O)*

Key:
PC12 cells = test: Inclusion formation of tNhtt-60Q-Venus with or without HSC70bm in PC12 cells; format: cell-based, rat; conditions: 10 mM 3MA, 10 μM pepstatin A
Description: The tNhtt-16Q-EGFP and tNhtt-150Q-EGFP plasmids for transient transfection were prepared by the introduction of the coding sequence into pcDNA3.1 vector (Invitrogen). […] HSC70bm were amplified with primers containing SalI in the forward and XmaI cutting site in the reverse primer from the 60QHsc construct. […] To produce molecules without mRFP tag, all constructs were amplified using primers containing BamHI in the forward and XbaI in the reverse primer, respectively, and introduced to pcDNA3.1 vector.
Rat pheochromocytoma (PC12) cells were grown in the same conditions as Neuro2a cells, except for the serum composition of 5% of fetal bovine and 10% of horse serum (Sigma). […]
In each well, at least 10000 cells were counted and quantified for the presence of the inclusions. […] The screening itself consisted of two scans using Hoechst, FITC (for GFP) and TRITC (for RFP) fluorescence. […] The percentage of the cells with aggregates was then calculated. When the constructs without mRFP were used for transfection, the procedure was same, except the RFP intensity was not measured. […]

[1] = tested on: polyQ inclusions in 150Q Neuro2a cells (tNhtt-EGFP-150Q); test: ArrayScan quantification of polyQ inclusion formation in inducible 150Q Neuro2a cells; format: cell-based, mouse; conditions: for decrease of inclusion formation: mRFP-tagged constructs, after 24 hours of differentiation and induction
Description: (§1) Mouse neuroblastoma (Neuro2a) cells were maintained in Dulbecco's modified Eagle's medium (Sigma) supplemented with 10% heat-inactivated fetal bovine serum (Sigma), 100 U/ml penicillin and 100 μg/ml streptomycin (Invitrogen) at 37° C. in an atmosphere containing 5% CO2 and 95% air. Establishment of stable Neuro2a cell lines with the ecdysone-inducible mammalian expression system (Invitrogen), that express tNhtt-EGFP-16Q (16Q Neuro2a cells), tNhtt-EGFP-150Q (150Q Neuro2a cells) and tNhtt-EGFP-150Q-nls (150Q-nls Neuro2a cells) has been described earlier (T. Nagai et al., supra, H. Doi et al., supra, E. A. Zemskov et al., J Neurochem. 87, 2 (2003)). Neuro2a cells were differentiated with 5mM dbcAMP (N^6, 2′-O-dibutyryladenosine-3′,5′-cyclic monophosphate sodium salt) (Nacalai Tesque) and induced to express tNhtt-polyQ with 2 μM ponasterone A (ponA; Invitrogen) for indicated times. Neuro2a/FRT/TR cell line was generated as described in the protocol for Flp-in/T-Rex system (Invitrogen). Neuro2a tNhtt-62Q-kikGR cell line was generated by transfecting Neuro2a/FRT/TR cells with the pFRT-HD62-KikGR and pOG44 (Invitrogen) constructs using Lipofectamine 2000 reagent and selected with 200 μg/ml hygromycin. The expression of the pFRT-tNhtt-62Q-KikGR was induced by 18 doxycycline treatment of the cells. For the photo-induced kikGR cleavage, cells were exposed to ˜400 nm wavelength for 5 minutes. Rat pheochromocytoma (PC12) cells were grown in the same conditions as Neuro2a cells, except for the serum composition of 5% of fetal bovine and 10% of horse serum (Sigma). All transient transfections were performed with Lipofectamine 2000 (Invitrogen) according to the manufacturer's instruction.
(§2) For the quantification of the inclusions, cells were grown in 24-well plates for indicated periods, fixed in 4% paraformaldehyde, washed and incubated with Hoechst 33258 at 1/1000 dilution in PBS. Cells were analyzed by ArrayScan® V^TI High Content Screening (HSC) Reader (Cellomics) using Target Activation BioApplication (TABA). TABA analyzes images acquired by a HSC Reader and provides measurements of the intracellular fluorescence intensity and localization on a cell-by-cell basis.
(§3) In each well, at least 10000 cells were counted and quantified for the presence of the inclusions. Nuclei stained with Hoechst 33285 provided the autofocus target and their count gave the exact number of the quantified cells. The screening itself consisted of two scans using Hoechst, FITC (for GFP) and TRITC (for RFP) fluorescence. Firstly, number of inclusions in transfected cells was calculated when fluorescent spots at size of at least 5 pixels (magnification 20× for cytoplasmic and 40× for nuclear aggregates) with average GFP intensity more than 1500 in the RFP background were counted. Secondly, nuclei were defined as the objects of interest and the cells with average intensity more than 50 within 3 pixels from the nucleus were selected for the analysis. The percentage of the cells with aggregates was then calculated. When the constructs without mRFP were used for transfection, the procedure was same, except the RFP intensity was not measured. Scanning was performed with triplicate or quadruplicate in each experimental condition. Data was generated from the quantification of more than 250,000 cells in each experimental set-up.

[2] = tested on: polyQ inclusions in 150Q-nls Neuro2a cells (tNhtt-EGFP-150Q-nls); test: ArrayScan quantification of polyQ inclusion formation in inducible 150Q-nls Neuro2a cells; format: cell-based, mouse; conditions: for decrease of the polyQ inclusion formation: 150Qnls Neuro2a cells, mRFP-tagged constructs, after 48 hours of differentiation and induction
Description: as §1, with “Rat pheochromocytoma (PC12) cells were grown in the same conditions as Neuro2a cells, except for the serum composition of 5% of fetal bovine and 10% of horse serum (Sigma). All transient transfections were performed with Lipofectamine 2000 (Invitrogen) according to the manufacturer's instruction.” left out
as §2
as §3, with “Secondly, nuclei were defined as the objects of interest and the cells with average intensity more than 50 within 3 pixels from the nucleus were selected for the analysis.” left out, “Scanning was performed with triplicate or quadruplicate in each experimental condition.” left out

[3] = target: T1, soluble tNhtt-60Q protein (Homo sapiens, UniProt P42858, INS38QQQQQQQQQQQQQQQQQQQQQQQQQQQQQQQQQQQQQQQ); test: Chase experiment in 60Q Neuro2a cells (Western blot); format: cell-based; conditions: after 24 hours chase
T1 construct: N-terminal fragment of human huntington exon 1 (tNhtt) encoding 60 CAG repeats; expressed in transfected cells; host or cells: 60Q Neuro2a cells (mouse neuroblastoma), ponasterone A induced
T1 sequence (P42858 with tags, fused parts or gaps with the stated changes): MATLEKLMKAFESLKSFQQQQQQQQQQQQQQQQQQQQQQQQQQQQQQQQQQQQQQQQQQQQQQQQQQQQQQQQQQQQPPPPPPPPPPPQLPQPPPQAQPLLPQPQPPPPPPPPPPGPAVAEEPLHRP
Description: (§4) To determine whether tNhtt-polyQ degrades faster in the presence of RHQ, chase experiments were performed. Neuro2a were first induced to express tNhtt-polyQ for 20 hrs in case of 60Q and 12 hrs in case of 150Q cells and then transfected with the tested constructs. Four hours later, ponaA was removed; cells were washed with PBS and incubated in the medium containing dbcAMP (for differentiation) for 24 hrs. Cells were lysed and the levels of tNhtt-polyQ were analyzed by Western blotting.
(§5) Cells were washed twice with ice-cold PBS, scraped, and resuspended in lysis buffer (0.5% Triton X-100 in PBS, 0.5 mM phenylmethylsulfonyl fluoride, Complete protease inhibitor mixture (Roche Applied Sciences)). After incubating on ice for 30 minutes lysates were briefly sonicated. Equal amounts of protein were boiled for 5 minutes in 2× SDS-sample buffer, separated by 5-12% gradient SDS-PAGE and electrophoretically transferred to a polyvinylidene difluoride (PVDF) membrane (Millipore). The membranes were blocked in 5% skim milk in 0.05% Tween 20/Tris-buffered saline (TBST) and incubated with primary antibody (dilutions in accordance to manufacturer's recommendations) overnight at […]. […] Immunoreactive proteins were detected with enhanced chemiluminescence reagents (Amersham Biosciences). […]

tNhtt-62Q-kikGR protein = target: T2, tNhtt-62Q-kikGR protein (Homo sapiens, UniProt P42858, INS38QQQQQQQQQQQQQQQQQQQQQQQQQQQQQQQQQQQQQQQQQ); test: Chase experiment in tNhtt-62Q-kikGR Neuro2a cells after photo-cleavage; format: cell-based; conditions: twelve hours after irradiation
T2 construct: inserting the htt exon 1 with 62Q (HD62); monomeric KikGR (mKikGR; KikGR BAD95669 with A17S, G32R, I37T, N39T, C116T, V126T, N161E, Q167E, H219Y, L222T, P223Y) (C); expressed in transfected cells; host or cells: Neuro2a/FRT/TR cells (Flp-in/T-Rex), doxycycline induced
T2 sequence (P42858 with tags, fused parts or gaps with the stated changes): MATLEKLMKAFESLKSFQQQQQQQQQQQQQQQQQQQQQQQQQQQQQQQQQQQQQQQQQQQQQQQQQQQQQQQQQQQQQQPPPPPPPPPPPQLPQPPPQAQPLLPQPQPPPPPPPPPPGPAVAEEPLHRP
Description: (§6) Mouse neuroblastoma (Neuro2a) cells were maintained in Dulbecco's modified Eagle's medium (Sigma) supplemented with 10% heat-inactivated fetal bovine serum (Sigma), 100 U/ml penicillin and 100 μg/ml streptomycin (Invitrogen) at 37° C. in an atmosphere containing 5% CO2 and 95% air. Establishment of stable Neuro2a cell lines with the ecdysone-inducible mammalian expression system (Invitrogen), that express tNhtt-EGFP-16Q (16Q Neuro2a cells), tNhtt-EGFP-150Q (150Q Neuro2a cells) and tNhtt-EGFP-150Q-nls (150Q-nls Neuro2a cells) has been described earlier (T. Nagai et al., supra, H. Doi et al., supra, E. A. Zemskov et al., J Neurochem. 87, 2 (2003)). […]
Neuro2a tNhtt-62Q-kikGR cells were induced for 24 hours, and then the 62Q-kikGR was cleaved by 5 minutes irradiation of the cells. Chase phase lasted for 12 hours before the cells were collected and analyzed.
(§7) Cells were washed twice with ice-cold PBS, scraped, and resuspended in lysis buffer (0.5% Triton X-100 in PBS, 0.5 mM phenylmethylsulfonyl fluoride, Complete protease inhibitor mixture (Roche Applied Sciences)). […] Immunoreactive proteins were detected with enhanced chemiluminescence reagents (Amersham Biosciences). […]

tNhtt-150Q = target: T3, tNhtt-150Q (Homo sapiens, UniProt P42858); test: Western blot of polyQ aggregation (gel top) in 150Q Neuro2a cells; format: cell-based; conditions: expression of mRFP-tagged constructs
T3 construct: N-terminal fragment of human huntington exon 1 (tNhtt); expressed in transfected cells
T3 sequence (P42858 with tags, fused parts or gaps): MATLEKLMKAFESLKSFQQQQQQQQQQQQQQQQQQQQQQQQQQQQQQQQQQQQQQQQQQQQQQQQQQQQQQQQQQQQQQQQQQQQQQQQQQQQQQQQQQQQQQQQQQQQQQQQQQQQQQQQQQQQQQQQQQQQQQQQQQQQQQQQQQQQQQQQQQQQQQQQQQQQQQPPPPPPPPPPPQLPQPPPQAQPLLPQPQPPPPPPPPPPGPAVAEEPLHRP
Description: as §6, with “(2003)). Neuro2a cells were differentiated with 5mM dbcAMP (N^6, 2′-O-dibutyryladenosine-3′,5′-cyclic monophosphate sodium salt) (Nacalai Tesque) and induced to express tNhtt-polyQ with 2 μM ponasterone A (ponA; Invitrogen) for indicated times. Neuro2a/FRT/TR cell line was generated as described in the protocol for Flp-in/T-Rex system (Invitrogen).” for “(2003)).”
as §7

tNhtt-16Q = test: Western blot of tNhtt-16Q levels in inducible Neuro2a cells; format: cell-based, human; conditions: inducible 16Q Neuro2a cells, transfection
Description: as §6, with “(2003)). Neuro2a cells were differentiated with 5mM dbcAMP (N^6, 2′-O-dibutyryladenosine-3′,5′-cyclic monophosphate sodium salt) (Nacalai Tesque) and induced to express tNhtt-polyQ with 2 μM ponasterone A (ponA; Invitrogen) for indicated times. Neuro2a/FRT/TR cell line was generated as described in the protocol for Flp-in/T-Rex system (Invitrogen).” for “(2003)).”
as §7

tNhtt-150Q polyQ protein = target: T4, tNhtt-150Q polyQ protein (Homo sapiens, UniProt P42858); test: Chase experiment in 150Q Neuro2a cells (Western blot); format: cell-based
T4 construct: N-terminal fragment of human huntington exon 1 (tNhtt); expressed in transfected cells
T4 sequence (P42858 with tags, fused parts or gaps): as above
Description: as §4, §5

[4] = tested on: polyQ inclusions in 150Q Neuro2a cells; test: Confocal imaging of tested constructs in 150Q Neuro2a cells; format: cell-based, mouse
Description: as §1, with “Rat pheochromocytoma (PC12) cells were grown in the same conditions as Neuro2a cells, except for the serum composition of 5% of fetal bovine and 10% of horse serum (Sigma). All transient transfections were performed with Lipofectamine 2000 (Invitrogen) according to the manufacturer's instruction.” left out

150Q Neuro2a cells = test: Cell death assay (propidium iodide uptake) in 150Q Neuro2a cells; format: cell-based, mouse; conditions: after 60 hours of induction
Description: as §6, with “(2003)). Neuro2a cells were differentiated with 5mM dbcAMP (N^6, 2′-O-dibutyryladenosine-3′,5′-cyclic monophosphate sodium salt) (Nacalai Tesque) and induced to express tNhtt-polyQ with 2 μM ponasterone A (ponA; Invitrogen) for indicated times. Neuro2a/FRT/TR cell line was generated as described in the protocol for Flp-in/T-Rex system (Invitrogen).” for “(2003)).”
(§8) For quantification of cell death, 5 μg/ml each of Hoechst 33342 and propidium iodide (PI) were added to differentiated and induced Neuro2a cells transiently transfected with either of the tested constructs (FIG. 6A). After 10 minutes at 37° C., the number of cells with PI uptake over the total number of cells was calculated by ArrayScan.

150Q-nls Neuro2a cells = test: Cell death assay (propidium iodide uptake) in 150Q-nls Neuro2a cells; format: cell-based, mouse; conditions: after 48 hours of induction
Description: as §6, with “(2003)). Neuro2a cells were differentiated with 5mM dbcAMP (N^6, 2′-O-dibutyryladenosine-3′,5′-cyclic monophosphate sodium salt) (Nacalai Tesque) and induced to express tNhtt-polyQ with 2 μM ponasterone A (ponA; Invitrogen) for indicated times. Neuro2a/FRT/TR cell line was generated as described in the protocol for Flp-in/T-Rex system (Invitrogen).” for “(2003)).”
as §8

Row | Compound | influence of inhibitor on the effect of HSC70bm on 60Q aggregation (PC12 cells) | decrease of inclusion formation [1] [%] | decrease of the polyQ inclusion formation [2] [%] | polyQ aggregation (gel top) (tNhtt-150Q) | levels of tNhtt-16Q (tNhtt-16Q) | localization relative to polyQ inclusions [4] | also measured
1 | CC(C)CC(=O)N[C@H](C(=O)N[C@H](C(=O)N[C@@H](CC(C)C)[C@@H](O)CC(=O)N[C@@H](C)C(=O)N[C@@H](CC(C)C)[C@@H](O)CC(=O)O)C(C)C)C(C)C [pepstatin A] (Isovaleryl-VV[Sta]A[Sta]-OH) | alleviated the effect of HSC70bm |  |  |  |  |  | 
2 | mRFP-HSC70bm-(QBP1)2 (MARVKKDQAEPLHRKFERQPPGSNWKWWPGIFDSNWKWWPGIFD; also: fused to mRFP) [RHQ] |  | 56.5 | 48.5 | much stronger effect; also recorded: markedly decreased | not affected | co-localized with the polyQ inclusions | effect on polyQ aggregation after silencing of HSC70 and/or Lamp2a with shRNA ([1]; any knock-down combination): inhibited; enhancement of degradation of soluble tNhtt-60Q protein as compared to R [3]: 43%; enhancement of degradation of soluble tNhtt-60Q protein as compared with RQ [3]: 37.4%; decrease of full length (constitutively expressed) tNhtt-62Q-kikGR as compared to RQ (tNhtt-62Q-kikGR protein): 24%; decrease of levels of the cleaved form of tNhtt-62Q-kikGR protein as compared to RQ (tNhtt-62Q-kikGR protein): 45.6%; clearance of aggregated and soluble polyQ (tNhtt-150Q polyQ protein; autophagy activation by serum withdrawal): almost complete clearance; degradation of the polyQ protein (tNhtt-150Q polyQ protein; chase 24 hours): enhanced degradation
3 | mRFP-(QBP1)2 (MSNWKWWPGIFDSNWKWWPGIFD; also: fused to mRFP) [RQ, monomeric red fluorescent protein fused to (QBP1)2, reference compound] |  | 38 | 21.5 | markedly decreased | not affected | co-localized with the polyQ inclusions | 
4 | Cn1cnc(N)c2ncnc1-2 [3MA, 3-methyladenine] | did not |  |  |  |  |  | 
5 | (QBP1)2 (MSNWKWWPGIFDSNWKWWPGIFD) [reference compound] |  |  |  |  |  |  | decrease of aggregation compared to control counterparts (S and HS) ([1]; constructs without mRFP, induced and differentiated for 24 hours): 32.6%; reduction of aggregation compared to control counterparts (S and HS) ([2]; 150Q-nls Neuro2a cells, constructs without mRFP, 48 hours after induction): 24.7%; decrease of the percentage of PI-positive cells (150Q Neuro2a cells): 12.3%; decrease of the percentage of PI-positive cells (150Q-nls Neuro2a cells): 17.7%
